Results reported in ChEMBL document CHEMBL1201862, “PubChem BioAssay data set” (2004).
Active and inactive are the calls of the source.

Legend:
[1] = target: T1, Sentrin-specific protease 8 (Homo sapiens, UniProt Q96LD8); assay type: functional;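 note: luminescence read-out of SENP8 inhibition, dose-response confirmation following an ultra-high-throughput screen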
T1 sequence (Q96LD8 whole entry): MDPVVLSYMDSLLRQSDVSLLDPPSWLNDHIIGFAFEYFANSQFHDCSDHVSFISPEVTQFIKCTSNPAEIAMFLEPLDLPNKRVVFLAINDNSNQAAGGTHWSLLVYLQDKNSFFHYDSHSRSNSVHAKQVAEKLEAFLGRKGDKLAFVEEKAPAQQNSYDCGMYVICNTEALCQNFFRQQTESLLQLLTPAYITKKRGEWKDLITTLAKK

[2] = target: T2, Sentrin-specific protease 7 (Homo sapiens, UniProt Q9BQF6); assay type: functional;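 note: Luminescence-based dose-response confirmation of ultra-high-throughput screening hits, measuring inhibition of SENP7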
T2 sequence (Q9BQF6 whole entry): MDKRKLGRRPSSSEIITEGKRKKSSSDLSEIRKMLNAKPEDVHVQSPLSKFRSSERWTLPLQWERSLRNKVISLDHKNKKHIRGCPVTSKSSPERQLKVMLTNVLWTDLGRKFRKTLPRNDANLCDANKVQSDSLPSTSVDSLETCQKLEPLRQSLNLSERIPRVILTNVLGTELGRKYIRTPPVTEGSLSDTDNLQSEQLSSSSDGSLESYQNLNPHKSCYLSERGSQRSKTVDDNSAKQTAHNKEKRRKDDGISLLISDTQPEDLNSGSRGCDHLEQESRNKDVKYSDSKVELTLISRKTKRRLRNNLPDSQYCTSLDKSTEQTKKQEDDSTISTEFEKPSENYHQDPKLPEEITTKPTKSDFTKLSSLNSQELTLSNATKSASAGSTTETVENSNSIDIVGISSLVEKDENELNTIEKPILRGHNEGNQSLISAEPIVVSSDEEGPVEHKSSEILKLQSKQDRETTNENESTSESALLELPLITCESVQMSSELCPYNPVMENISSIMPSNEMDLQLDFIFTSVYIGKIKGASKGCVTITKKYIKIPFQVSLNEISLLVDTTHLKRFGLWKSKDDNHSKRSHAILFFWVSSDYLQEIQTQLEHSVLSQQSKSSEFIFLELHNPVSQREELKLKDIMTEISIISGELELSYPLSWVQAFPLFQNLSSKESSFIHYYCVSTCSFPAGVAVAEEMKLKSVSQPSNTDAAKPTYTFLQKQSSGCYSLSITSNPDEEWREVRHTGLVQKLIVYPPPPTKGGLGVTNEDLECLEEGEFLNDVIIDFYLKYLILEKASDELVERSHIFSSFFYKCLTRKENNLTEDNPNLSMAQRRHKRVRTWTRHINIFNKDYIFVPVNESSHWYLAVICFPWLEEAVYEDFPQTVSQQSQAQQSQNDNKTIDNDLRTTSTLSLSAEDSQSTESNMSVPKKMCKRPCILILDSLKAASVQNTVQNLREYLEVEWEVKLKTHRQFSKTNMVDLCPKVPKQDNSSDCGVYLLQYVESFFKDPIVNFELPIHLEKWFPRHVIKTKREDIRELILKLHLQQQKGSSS

[3] = target: T3, Sentrin-specific protease 6 (Homo sapiens, UniProt Q9GZR1); assay type: functional;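 note: Luminescence-based dose-response confirmatory assay of SENP6 inhibition, following up an ultra-high-throughput screen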
T3 sequence (Q9GZR1 whole entry): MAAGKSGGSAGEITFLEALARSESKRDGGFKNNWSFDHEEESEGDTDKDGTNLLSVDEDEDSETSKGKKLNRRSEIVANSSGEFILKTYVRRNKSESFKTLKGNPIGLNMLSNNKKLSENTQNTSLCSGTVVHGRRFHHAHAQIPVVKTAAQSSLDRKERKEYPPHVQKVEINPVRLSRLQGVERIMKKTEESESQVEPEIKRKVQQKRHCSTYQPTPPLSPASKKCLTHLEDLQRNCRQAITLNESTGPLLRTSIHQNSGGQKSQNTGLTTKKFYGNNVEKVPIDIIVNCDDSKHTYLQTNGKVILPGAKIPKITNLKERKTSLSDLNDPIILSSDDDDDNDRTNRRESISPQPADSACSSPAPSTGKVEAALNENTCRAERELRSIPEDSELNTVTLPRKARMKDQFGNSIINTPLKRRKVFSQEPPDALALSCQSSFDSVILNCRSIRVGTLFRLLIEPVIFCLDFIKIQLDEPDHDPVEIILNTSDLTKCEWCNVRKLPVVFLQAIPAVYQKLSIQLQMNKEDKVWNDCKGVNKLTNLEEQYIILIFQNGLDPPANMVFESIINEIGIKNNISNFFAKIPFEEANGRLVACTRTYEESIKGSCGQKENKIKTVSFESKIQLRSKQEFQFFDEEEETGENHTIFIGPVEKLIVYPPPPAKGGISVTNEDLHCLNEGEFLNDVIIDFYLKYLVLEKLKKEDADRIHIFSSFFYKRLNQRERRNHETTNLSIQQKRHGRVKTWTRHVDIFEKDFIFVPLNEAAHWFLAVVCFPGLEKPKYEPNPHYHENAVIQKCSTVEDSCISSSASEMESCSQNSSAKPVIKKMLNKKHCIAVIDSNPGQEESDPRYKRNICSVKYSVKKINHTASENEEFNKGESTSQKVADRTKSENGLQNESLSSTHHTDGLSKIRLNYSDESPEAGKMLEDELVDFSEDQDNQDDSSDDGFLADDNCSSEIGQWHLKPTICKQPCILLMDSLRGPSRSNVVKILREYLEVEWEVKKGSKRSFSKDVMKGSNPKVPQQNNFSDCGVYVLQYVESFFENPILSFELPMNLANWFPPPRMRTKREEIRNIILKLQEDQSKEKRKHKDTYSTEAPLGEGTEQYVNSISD

[4] = target: T4, Caspase-3 (Homo sapiens, UniProt P42574); assay type: functional;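 note: Dose-response selectivity test against caspase-3 for candidate inhibitors of sentrin-specific proteases (SENPs)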
T4 sequence (P42574 whole entry): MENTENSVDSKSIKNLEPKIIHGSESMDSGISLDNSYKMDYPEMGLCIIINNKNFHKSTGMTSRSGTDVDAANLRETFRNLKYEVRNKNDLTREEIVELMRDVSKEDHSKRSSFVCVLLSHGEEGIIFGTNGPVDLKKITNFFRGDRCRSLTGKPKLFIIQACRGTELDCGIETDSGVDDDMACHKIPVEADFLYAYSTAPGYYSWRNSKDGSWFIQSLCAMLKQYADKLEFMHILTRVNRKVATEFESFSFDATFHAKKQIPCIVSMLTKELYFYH

[5] = A549 cell cytotoxicity, dose response, cytotoxicity control, plate reader, cherry-pick, antagonist series (AID 743412); assay type: functional, cell-based
[6] = blockade of melanocortin 4 receptor signaling – cell-based, plate reader, cherry pick, counter-screen for LGR2 antagonist project, dose response (AID 743444); assay type: functional;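 note: transfected HEK 293 cells stimulated with alpha-MSH peptide; potency of inhibitors of the alpha-MSH evoked signal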
[7] = blockers of bursicon-stimulated LGR2 cAMP reporter – cell-based, HEK293, CRE-luciferase reporter, cherry pick, set 2, dose response (AID 743343); assay type: functional;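 note: transfected cells were stimulated with diluted bursicon conditioned medium after compound addition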
[8] = toxicity toward HepG2 liver cells – cell-based, plate reader, cherry-pick, antagonist series, cytotoxicity control, dose response (AID 743416); assay type: functional
[9] = viability loss in HEK293 cells – cell-based, plate reader, cherry-picked samples, cytotoxicity control, dose response (AID 743446); assay type: functional
[10] = toxicity to human hepatoma HepG2 cells – cell-based, cherry-picked samples, cytotoxicity control, dose response (AID 1159577); assay type: functional
[11] = P. falciparum Dd2 growth inhibitors, dose response, SYBR Green, cherry-picked samples (AID 1159567); assay type: functional, cell-based
[12] = tested on: SN12K1; test: cells; assay type: functional; settings: Homo sapiens
[13] = tested on: P388; test: cells; assay type: functional; settings: Mus musculus
[14] = tested on: P388/ADR; test: cells; assay type: functional; settings: Mus musculus
[15] = target: Photoreceptor-specific nuclear receptor (Homo sapiens, UniProt Q9Y5X4); assay type: functional, cell-based;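 note: CHO-S cells with Gal4-NCOR and VP16-NR2E3 two-hybrid luciferase reporter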
[16] = tested on: HEK293; test: EBV LMP1 TES2 canonical NF-kB signalling blockers – cell-based, HEK293, luciferase, cherry-pick, dose response (AID 588343); assay type: functional; settings: Homo sapiens
[17] = blockers of HIV-1 envelope-mediated cell-cell fusion – cherry-pick, dose response (AID 652057); assay type: functional, cell-based
[18] = off-target signal loss in HeLa-CEM21 co-culture – HeLa F-luc CTL cells, cherry-picked, counter-screen for HIV-1 Env fusion inhibitor project, dose response (AID 652040); assay type: functional, cell-based;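 note: potency for signal decrease marking cytotoxic or nonspecific inhibition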
[19] = blockers of HIV-1 ZM109 envelope-driven cell-cell fusion – HeLa effector, CEM target cells, luciferase, cherry-pick, dose response (AID 652058); assay type: functional, cell-based;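 note: luciferase signal from HIV-1 Env mediated cell-cell fusion of effector and target cells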
[20] = viability loss in CEM21 cells – cell-based, CellTiter-Glo luminescence, cherry-picked, cytotoxicity control for viral fusion inhibitor project, dose response (AID 652042); assay type: functional;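 note: potency for signal decrease meaning cytotoxicity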
[21] = HIV-1 AD8 envelope cell-cell fusion blockers – cherry-pick, dose response (AID 652062); assay type: functional, cell-based;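 note: luciferase signal from cell-cell fusion driven by HIV-1 clade B AD8 Env; potency is for inhibitors of fusion seen as a drop in luminescence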
[22] = Luminescence Cell-Based Dose Retest to Confirm Inhibitors of Cancer Stem Cells. [Related pubchem assays (depositor defined):AID2717, AID2721]; assay type: functional; settings: Homo sapiens
[23] = target: Paired box protein Pax-8 (Homo sapiens, UniProt Q06710); test: PAX8 transcriptional activity inhibition in RMG-I – RMG-I cells, luciferase, cherry-pick, dose response (AID 687027); assay type: functional, cell-based;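 note: luciferase reporter driven by Pax8 target thyroperoxidase promoter measured by SteadyGlo luminescence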
Chain of Paired box protein Pax-8 (Q06710 whole entry): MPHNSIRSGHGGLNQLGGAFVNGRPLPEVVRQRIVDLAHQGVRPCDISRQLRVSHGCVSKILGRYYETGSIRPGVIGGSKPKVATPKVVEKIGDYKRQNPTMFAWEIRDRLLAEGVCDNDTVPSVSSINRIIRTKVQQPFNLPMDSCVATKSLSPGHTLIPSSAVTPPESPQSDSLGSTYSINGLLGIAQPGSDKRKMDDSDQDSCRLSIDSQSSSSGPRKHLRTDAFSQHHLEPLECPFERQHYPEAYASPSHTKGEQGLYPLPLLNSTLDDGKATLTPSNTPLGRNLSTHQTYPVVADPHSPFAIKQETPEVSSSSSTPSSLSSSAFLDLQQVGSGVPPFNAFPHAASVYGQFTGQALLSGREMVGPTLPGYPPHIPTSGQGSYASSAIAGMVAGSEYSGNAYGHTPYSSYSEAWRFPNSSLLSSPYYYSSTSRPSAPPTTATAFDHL

Chain of Photoreceptor-specific nuclear receptor (Q9Y5X4 whole entry, the tested form may be a part): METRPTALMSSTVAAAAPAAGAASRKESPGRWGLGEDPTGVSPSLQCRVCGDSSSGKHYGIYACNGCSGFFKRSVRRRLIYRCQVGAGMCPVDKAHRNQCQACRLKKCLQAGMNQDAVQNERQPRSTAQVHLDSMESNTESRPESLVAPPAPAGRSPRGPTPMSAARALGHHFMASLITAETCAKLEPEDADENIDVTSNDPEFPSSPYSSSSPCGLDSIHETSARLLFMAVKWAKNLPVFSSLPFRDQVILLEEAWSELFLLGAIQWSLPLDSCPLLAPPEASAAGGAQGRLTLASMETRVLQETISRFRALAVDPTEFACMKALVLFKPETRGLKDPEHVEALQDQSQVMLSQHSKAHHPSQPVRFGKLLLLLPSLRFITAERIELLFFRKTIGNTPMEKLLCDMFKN

CCCCCc1ccc(-c2ccc(OC)cc2)nc1
active: IC50 [1] 80.5 µM | IC50 [2] 9.32 µM | IC50 [3] 41.8 µM | IC50 [4] 37.2 µM

O=C(c1cc(-c2ccccc2Cl)nc2ccc(Br)cc12)N1CCN(c2ccccn2)CC1
active: AC50 [5] 34.5 µM | AC50 [6] 29.2 µM | AC50 [7] 28.3 µM | AC50 [8] 50.3 µM | AC50 [9] 22.8 µM

O=S(=O)(c1ccc(F)cc1)N1CCCCN2[C@H](CO)[C@H](c3ccc(-c4ccccc4F)cc3)[C@H]2C1
active: AC50 [10] 11 µM | AC50 [11] 1.97 µM

Nc1nc(N)nc(-c2ccccc2NS(=O)(=O)c2ccc([N+](=O)[O-])cc2)n1
inactive: GI50 [12] > 56.5 µM | GI50 [13] 57.1 µM | GI50 [14] 38.5 µM

C[C@H](CO)N1C[C@H](C)[C@@H](CN(C)Cc2ccccc2)Oc2ccc(NC(=O)Nc3ccc(F)cc3)cc2CC1=O
inactive: AC50 [10] > 39 µM
active: AC50 [11] 4.02 µM

COCCn1c(C)cc(C(=O)COc2ccc(C)nc2[N+](=O)[O-])c1C
active: IC50 [15] 5.55 µM | AC50 [16] 9.91 µM

C[C@H]1CN([C@@H](C)CO)C(=O)Cc2cc(NC(=O)Nc3ccc(F)cc3)ccc2O[C@H]1CN(C)CC1CCCCC1
active: AC50 [5] 9.61 µM | AC50 [6] 55.8 µM | AC50 [8] 16.6 µM | AC50 [9] 15.4 µM

CCCCCCCCN1C(=O)[C@H](CC(=O)NCCCC)C[C@@]2(C(=O)OCC)CCCC=C12
active: AC50 [17] 7.2 µM | AC50 [18] 66.4 µM | AC50 [19] 23.2 µM | AC50 [20] 37.5 µM | AC50 [21] 16.3 µM

O=C(Nc1ccc(C2CC2(Cl)Cl)cc1)c1cccc([N+](=O)[O-])c1 (stereo unspecified)
active: IC50 [1] 29.5 µM | IC50 [2] 5.14 µM | IC50 [3] 7.84 µM | IC50 [4] 28.8 µM

COc1cccc(CN2CCC2(C)C(=O)Nc2cccc(Oc3ccccc3)c2)c1OC (stereo unspecified)
inactive: AC50 [18] > 70 µM
active: AC50 [17] 3.47 µM | AC50 [20] 61.8 µM | AC50 [21] 20.4 µM

O=C(NCCSc1ccccc1)c1ccc(Br)cc1
active: IC50 [1] 26.8 µM | IC50 [2] 7.71 µM | IC50 [3] 22.4 µM | IC50 [4] 17.7 µM

CCCCCCCCCCCCCCCC(=O)OCC1OC(n2ccc(N)nc2=O)C(O)C1O (stereo unspecified)
active: AC50 [17] 0.557 µM | AC50 [18] 0.44 µM | AC50 [19] < 0.26 µM | AC50 [20] 24 µM | AC50 [21] 0.922 µM

COc1ccc(/C=N/N2CCN(c3ccccc3OC)CC2)cc1Br
active: IC50 [1] 54.9 µM | IC50 [2] 7.1 µM | IC50 [3] 25 µM | IC50 [4] 21.1 µM

O=C(O)CCCCCCC[C@@H]1S[C@H]1CCCCCCO
inactive: GI50 [12] > 100 µM | GI50 [13] > 100 µM | GI50 [14] > 100 µM

CCCCCCCCCCNC1CC(OC2CC(O)(C(O)CO)Cc3c(O)c4c(c(O)c32)C(=O)c2c(OC)cccc2C4=O)OC(C)C1O (stereo unspecified)
active: GI50 [13] 0.168 µM
inactive: GI50 [12] 1.25 µM | GI50 [14] 1.52 µM

CC(C)CC/N=c1/cc2n(-c3ccc(Cl)cc3)c3ccccc3nc-2cc1Nc1ccc(Cl)cc1
inactive: GI50 [12] 6.4 µM | GI50 [13] 2.82 µM | GI50 [14] 2.19 µM

Cn1nnnc1Sc1ncnc2scc(-c3cccc(Br)c3)c12
active: AC50 [5] 9.25 µM | AC50 [22] 1.86 µM | AC50 [6] 6.1 µM | AC50 [7] 5.22 µM | AC50 [23] 2.75 µM | AC50 [9] 11.1 µM

COc1c2ccoc2c(S(=O)(=O)Nc2ccc(Cl)cc2)c2oc(C)cc(=O)c12
inactive: GI50 [12] > 100 µM | GI50 [13] 69.3 µM | GI50 [14] 72.4 µM
